Patent publication US10654788B2, “Method for synthesizing novel compounds derived from 3-hydroxy-cyclopentyl acetic acid” (L'OREAL, priority 2015, dated 2020)

Legend:
TGM1 transcripts = experiment: Expression of TGM1 transcripts in keratinocytes (RT-qPCR); assay type: cell-based; conditions: human epidermal keratinocytes
Description: (§1) The influence of compound 5, in particular obtained according to the preparation process described in example 1 above, on the epidermal renewal and the barrier effect of the skin was evaluated in vitro by measuring the expression of the TGM1 and TGM3 transcripts in keratinocytes.
(§2) Human epidermal keratinocytes were incubated for 24 hours in the presence or absence (control) of the compound to be tested. At the end of the incubation, the total RNAs were extracted and then quantified. The expression of the TGM1 and TGM3 transcripts was then measured by means of a 2-step RT-qPCR method by means of a LightCycler® 480 system and according to the SYBR® Green (Qiagen) incorporation technique. The expression of these transcripts was standardized relative to the expression of 2 housekeeping genes, RPL13A and GAPDH. The experiment was reproduced 3 times (N=3).
(§3) The results are expressed as fold change (fc) relative to the control.

TGM3 transcripts = experiment: Expression of TGM3 transcripts in keratinocytes (RT-qPCR); assay type: cell-based; conditions: human epidermal keratinocytes
Description: as §1, §2, §3

[1] = 24 hours incubation, 100 μm, standardized to RPL13A and GAPDH, N=3

CCCCCCCCC1C(O)CCC1CC(=O)O (stereo not shown) [Compound 5]
expression of the TGM1 transcripts (class in words) (TGM1 transcripts; 24 hours): moderately stimulated | TGM1 transcript expression, fold change (fc) relative to the control (TGM1 transcripts; [1]): 1.9 fc | expression of the TGM3 transcripts (class in words) (TGM3 transcripts; 24 hours): moderately stimulated | TGM3 transcript expression, fold change (fc) relative to the control (TGM3 transcripts; [1]): 1.8 fc
